Experimental data published in ChEMBL document CHEMBL6153106, “Synergistic Anti-Ferroptosis with a Minimalistic, Peroxide-Triggered Carbon Monoxide Donor for Parkinson's Disease” (J Med Chem, 2025).
Calls of active or inactive are those of the source.

How the values were obtained:
[1] = Induction of H2O2-induced CO release in PBS buffer at pH 7.4 assessed as retention time at 100 uM by gas chromatography analysis; format: functional
[2] = Induction of ONOO-induced CO release in PBS buffer at pH 7.4 assessed as retention time at 100 uM by gas chromatography analysis; format: functional
[3] = Induction of ONOO-induced CO release in PBS buffer at pH 7.4 at 100 uM by gold-standard CO-myoglobin assay; format: functional
[4] = Induction of ONOO-induced CO release in PBS buffer at pH 7.4 at 100 uM in presence of PdCl2 by fluorescence based analysis; format: functional
[5] = Induction of ONOO-induced CO release in PBS buffer at pH 7.4 assessed as increase in fluorescence intensity at 100 uM incubated for 30 min by gas detector analysis; format: functional
[6] = Induction of H2O2-induced CO release in PBS buffer at pH 7.4 assessed as increase in fluorescence intensity at 100 uM incubated for 30 min by gas detector analysis; format: functional
[7] = test system: SH-SY5Y; test: Inhibition of ferroptosis in MPP+-induced human SH-SY5Y cells assessed as decrease in intracellular ONOO release by measuring fluorescence intensity at 10 uM pretreated with MPP+ for 20 hrs followed by compound treatment for 2 hrs by HK-green-4I probe based confocal microscopic analysis; format: functional, cell-based
[8] = test system: SH-SY5Y; test: Inhibition of ferroptosis in MPP+-induced human SH-SY5Y cells assessed as decrease in intracellular Fe2+ release by measuring fluorescence intensity at 10 uM pretreated with MPP+ for 20 hrs followed by compound treatment for 2 hrs by FerroOrange probe based confocal microscopic analysis; format: functional, cell-based
[9] = test system: SH-SY5Y; test: Inhibition of ferroptosis in MPP+-induced human SH-SY5Y cells assessed as induction of CO release by measuring increase in fluorescent intensity at 10 uM pretreated with MPP+ for 20 hrs followed by compound treatment for 30 mins by COP490 probe based confocal microscopic analysis; format: functional, cell-based
[10] = test system: SH-SY5Y; test: Inhibition of ferroptosis in MPP+-induced human SH-SY5Y cells assessed as increase in GPX4 level by Western blot analysis; format: functional, cell-based
[11] = test system: SH-SY5Y; test: Inhibition of ferroptosis in MPP+-induced human SH-SY5Y cells assessed as reduction in DMT1 level by Western blot analysis; format: functional, cell-based
[12] = test system: SH-SY5Y; test: Inhibition of ferroptosis in MPP+-induced human SH-SY5Y cells assessed as reduction in 4-HNE level by Western blot analysis; format: functional, cell-based
[13] = test system: Mus musculus; test: Anti-parkinson activity in MPTP-induced male C57BL/6J mouse model assessed as increase in total distance traveled at 6 mg/kg, iv pretreated with compound for 1 day followed by MPTP-induction for 2 to 9 days and measured after 10 days by open field test; format: functional, organism-based; details: time 10.0 day
[14] = test system: Mus musculus; test: Anti-parkinson activity in MPTP-induced male C57BL/6J mouse model assessed as increase in mean speed at 6 mg/kg, iv pretreated with compound for 1 day followed by MPTP-induction for 2 to 9 days and measured after 10 days by open field test; format: functional, organism-based; details: time 10.0 day
[15] = test system: Mus musculus; test: Anti-parkinson activity in MPTP-induced male C57BL/6J mouse model assessed as increase in distance traveled in open arms at 6 mg/kg, iv pretreated with compound for 1 day followed by MPTP-induction for 2 to 9 days and measured after 10 days by elevated plus maze test; format: functional, organism-based; details: time 10.0 day
[16] = test system: Mus musculus; test: Anti-parkinson activity in MPTP-induced male C57BL/6J mouse model assessed as increase in frequency of open arms entries at 6 mg/kg, iv pretreated with compound for 1 day followed by MPTP-induction for 2 to 9 days and measured after 10 days by elevated plus maze test; format: functional, organism-based; details: time 10.0 day
[17] = test system: Mus musculus; test: Anti-parkinson activity in MPTP-induced male C57BL/6J mouse model assessed as increase in total number of fecal pellets production at 6 mg/kg, iv pretreated with compound for 1 day followed by MPTP-induction for 2 to 9 days and measured after 10 days by elevated plus maze test; format: functional, organism-based; details: time 10.0 day
[18] = test system: Mus musculus; test: Anti-parkinson activity in MPTP-induced male C57BL/6J mouse model assessed as increase in latency period at 6 mg/kg, iv pretreated with compound for 1 to 11 days followed by MPTP-induction for 1 to 5 days and measured on day 24 by rotarod test; format: functional, organism-based; details: time 24.0 day
[19] = test system: Mus musculus; test: Anti-parkinson activity in MPTP-induced male C57BL/6J mouse model assessed as decrease in descending time at 6 mg/kg, iv pretreated with compound for 1 to 11 days followed by MPTP-induction for 1 to 5 days and measured on day 24 by pole test; format: functional, organism-based; details: time 24.0 day
[20] = test system: Mus musculus; test: Anti-parkinson activity in MPTP-induced male C57BL/6J mouse model assessed as improvement in hindlimb clasping reflex at 6 mg/kg, iv pretreated with compound for 1 to 11 days followed by MPTP-induction for 1 to 5 days and measured on day 24 by hindlimb clasping test; format: functional, organism-based; details: time 24.0 day
[21] = test system: Mus musculus; test: Anti-parkinson activity in MPTP-induced male C57BL/6J mouse model assessed as increase in TH level in substantia nigra pars compacta at 6 mg/kg, iv pretreated with compound for 1 to 11 days followed by MPTP-induction for 1 to 5 days and measured on day 26 by immunofluorescence analysis; format: functional, organism-based; details: time 26.0 day
[22] = test system: Mus musculus; test: Anti-parkinson activity in MPTP-induced male C57BL/6J mouse model assessed as increase in TH level in substantia nigra pars compacta at 6 mg/kg, iv pretreated with compound for 1 to 11 days followed by MPTP-induction for 1 to 5 days and measured on day 26 by Western blot analysis; format: functional, organism-based; details: time 26.0 day
[23] = test system: Mus musculus; test: Anti-parkinson activity in MPTP-induced male C57BL/6J mouse model assessed as decrease in total alpha-synuclein level in midbrain at 6 mg/kg, iv pretreated with compound for 1 to 11 days followed by MPTP-induction for 1 to 5 days and measured on day 26 by Western blot analysis; format: functional, organism-based; details: time 26.0 day
[24] = test system: Mus musculus; test: Anti-parkinson activity in MPTP-induced male C57BL/6J mouse model assessed as decrease in phosphorylated alpha-synuclein level in midbrain at 6 mg/kg, iv pretreated with compound for 1 to 11 days followed by MPTP-induction for 1 to 5 days and measured on day 26 by Western blot analysis; format: functional, organism-based; details: time 26.0 day
[25] = test system: Mus musculus; test: Anti-parkinson activity in MPTP-induced male C57BL/6J mouse model assessed as increase in GPX4 expression in midbrain at 6 mg/kg, iv pretreated with compound for 1 to 11 days followed by MPTP-induction for 1 to 5 days and measured on day 26 by Western blot analysis; format: functional, organism-based; details: time 26.0 day
[26] = test system: Mus musculus; test: Anti-parkinson activity in MPTP-induced male C57BL/6J mouse model assessed as increase in SLC7A11 expression in midbrain at 6 mg/kg, iv pretreated with compound for 1 to 11 days followed by MPTP-induction for 1 to 5 days and measured on day 26 by Western blot analysis; format: functional, organism-based; details: time 26.0 day
[27] = test system: Mus musculus; test: Anti-parkinson activity in MPTP-induced male C57BL/6J mouse model assessed as decrease in […] expression in midbrain at 6 mg/kg, iv pretreated with compound for 1 to 11 days followed by MPTP-induction for 1 to 5 days and measured on day 26 by Western blot analysis; format: functional, organism-based; details: time 26.0 day
[28] = test system: Mus musculus; test: Anti-parkinson activity in MPTP-induced male C57BL/6J mouse model assessed as increase in GPX4 expression in substantia nigra pars compacta at 6 mg/kg, iv pretreated with compound for 1 to 11 days followed by MPTP-induction for 1 to 5 days and measured on day 26 by immunostaining based analysis; format: functional, organism-based; details: time 26.0 day
[29] = test system: Mus musculus; test: Anti-parkinson activity in MPTP-induced male C57BL/6J mouse model assessed as increase in TH expression in substantia nigra pars compacta at 6 mg/kg, iv pretreated with compound for 1 to 11 days followed by MPTP-induction for 1 to 5 days and measured on day 26 by immunostaining based analysis; format: functional, organism-based; details: time 26.0 day
[30] = test system: Mus musculus; test: Anti-parkinson activity in MPTP-induced male C57BL/6J mouse model assessed as reduction in 4-HNE level in midbrain at 6 mg/kg, iv pretreated with compound for 1 to 11 days followed by MPTP-induction for 1 to 5 days and measured on day 26 by Western blot analysis; format: functional, organism-based; details: time 26.0 day
[31] = test system: Mus musculus; test: Anti-parkinson activity in MPTP-induced male C57BL/6J mouse model assessed as reduction in MDA level in midbrain at 6 mg/kg, iv pretreated with compound for 1 to 11 days followed by MPTP-induction for 1 to 5 days and measured on day 26 by Western blot analysis; format: functional, organism-based; details: time 26.0 day
[32] = test system: Mus musculus; test: Anti-parkinson activity in MPTP-induced male C57BL/6J mouse model assessed as reduction in free ferrous iron level in midbrain at 6 mg/kg, iv pretreated with compound for 1 to 11 days followed by MPTP-induction for 1 to 5 days and measured on day 21; format: functional, organism-based; details: time 21.0 day
[33] = test system: Mus musculus; test: Anti-parkinson activity in MPTP-induced male C57BL/6J mouse model assessed as reduction in TFRC level in midbrain at 6 mg/kg, iv pretreated with compound for 1 to 11 days followed by MPTP-induction for 1 to 5 days and measured on day 21; format: functional, organism-based; details: time 21.0 day
[34] = test system: Mus musculus; test: Anti-parkinson activity in MPTP-induced male C57BL/6J mouse model assessed as reduction in DMT1 level in midbrain at 6 mg/kg, iv pretreated with compound for 1 to 11 days followed by MPTP-induction for 1 to 5 days and measured on day 21; format: functional, organism-based; details: time 21.0 day
[35] = test system: Mus musculus; test: Anti-parkinson activity in MPTP-induced male C57BL/6J mouse model assessed as reduction in NCOA4 level in midbrain at 6 mg/kg, iv pretreated with compound for 1 to 11 days followed by MPTP-induction for 1 to 5 days and measured on day 21; format: functional, organism-based; details: time 21.0 day
[36] = Induction of ONOO-induced CO release in PBS buffer at pH 7.4 at 100 uM by HPLC analysis; format: functional
[37] = Induction of H2O2-induced CO release in PBS buffer at pH 7.4 at 100 uM by HPLC analysis; format: functional

COC(=O)C(=O)OC1(C)C(=O)Oc2ccc(F)cc21 (configuration not stated)
active: Activity [3] | Activity [4] Weak_effect | Activity [5] | Activity [6] | inhibition [7] | inhibition [8] | inhibition [9] | inhibition [10] | inhibition [11] | inhibition [12] | Activity [13] | Activity [14] | Activity [15] | Activity [16] | Activity [17] | Activity [18] | Activity [19] | Activity [20] | Activity [21] | Activity [22] | Activity [23] | Activity [24] | Activity [25] | Activity [26] | Activity [27] | Activity [28] | Activity [29] | Activity [30] | Activity [31] | Activity [32] | Activity [33] | Activity [34] | Activity [35]
3.86 min: Retention time [1]
1.96 min: Retention time [2]

CC(=O)c1cc(F)ccc1O
active: Activity [36] | Activity [37]
